How the values were obtained:
KDM5C = KDM5C (Homo sapiens, UniProt P41229); test: KDM5C enzymatic assay (AlphaLISA); type: biochemical
Experimental: (§1) The following assay protocol was used for all histone demethylases tested except KDM1A, KDM5A, B, and D, which are described below. Compounds were serially diluted into a 384-well Alpha plate as a DMSO solution and mixed with 5 μL reaction buffer (buffer A) containing 50 mM HEPES (pH 7.0), 0.1% BSA, and 0.003% Tween-20. The enzyme of interest was pre-incubated with 15 μM of Fe^2+ for 10 min (except 30 min for KDM2B) in reaction buffer A. 5 μL of the enzyme mixture was added to each of the compound-containing wells and incubated for 10 min. The reaction was started by addition of a 5 μL mixture containing 300 nM peptide substrate, 75 μM L-ascorbic acid, and 30 μM α-ketoglutarate in buffer A. This final 15 μL of reaction mixture was incubated for 20 min for KDM5B and 1 hour for the other KDM enzymes. The reaction was quenched with 10 μL of diluted AlphaLISA Acceptor beads (1:400) in Epigenetics Buffer and incubated for 60 min. The Donor beads were diluted 1:400 into Epigenetics Buffer in the dark and 10 μL of this was added to each well and incubated for another 60 min in the dark. The assay plates were read on an Enspire plate reader (PerkinElmer) using a standard AlphaLISA program.
(§2) Data was analyzed using GraphPad Prism 6.0 (La Jolla, CA). […] IC50 values were calculated as an average of at least two independent experiments.

KDM1A = KDM1A (Homo sapiens, UniProt O60341); test: KDM1A enzymatic assay (AlphaLISA, NAD); type: biochemical
Experimental: The KDM1 assay was conducted in the presence of NAD but without Fe(II) or ascorbic acid. A 10 μL reaction mixture containing 50 mM Tris-HCl (pH 9.0), 50 mM NaCl, 0.01% Tween-20, 0.25 nM of enzyme, and 1 mM NAD was pre-incubated for 10 min. The reaction was started by addition of 5 μL of H3(1–21)K4 me1, and the reaction mixture was incubated for 60 min. The reaction was quenched with 10 μL AlphaLISA Acceptor beads (1:200) in Epigenetics Buffer and the reaction mixture was incubated for 60 min. The Donor beads were diluted 1:200 into Epigenetics Buffer in the dark, and 10 μL of this mixture was added to each well and incubated for another 60 min in the dark. The assay plates were read on an Enspire plate reader (PerkinElmer) using a standard AlphaLISA program.
as §2

KDM3B = KDM3B (Homo sapiens, UniProt Q7LBC6); test: KDM3B enzymatic assay (AlphaLISA); type: biochemical
Sequence of KDM3B (Q7LBC6 whole entry): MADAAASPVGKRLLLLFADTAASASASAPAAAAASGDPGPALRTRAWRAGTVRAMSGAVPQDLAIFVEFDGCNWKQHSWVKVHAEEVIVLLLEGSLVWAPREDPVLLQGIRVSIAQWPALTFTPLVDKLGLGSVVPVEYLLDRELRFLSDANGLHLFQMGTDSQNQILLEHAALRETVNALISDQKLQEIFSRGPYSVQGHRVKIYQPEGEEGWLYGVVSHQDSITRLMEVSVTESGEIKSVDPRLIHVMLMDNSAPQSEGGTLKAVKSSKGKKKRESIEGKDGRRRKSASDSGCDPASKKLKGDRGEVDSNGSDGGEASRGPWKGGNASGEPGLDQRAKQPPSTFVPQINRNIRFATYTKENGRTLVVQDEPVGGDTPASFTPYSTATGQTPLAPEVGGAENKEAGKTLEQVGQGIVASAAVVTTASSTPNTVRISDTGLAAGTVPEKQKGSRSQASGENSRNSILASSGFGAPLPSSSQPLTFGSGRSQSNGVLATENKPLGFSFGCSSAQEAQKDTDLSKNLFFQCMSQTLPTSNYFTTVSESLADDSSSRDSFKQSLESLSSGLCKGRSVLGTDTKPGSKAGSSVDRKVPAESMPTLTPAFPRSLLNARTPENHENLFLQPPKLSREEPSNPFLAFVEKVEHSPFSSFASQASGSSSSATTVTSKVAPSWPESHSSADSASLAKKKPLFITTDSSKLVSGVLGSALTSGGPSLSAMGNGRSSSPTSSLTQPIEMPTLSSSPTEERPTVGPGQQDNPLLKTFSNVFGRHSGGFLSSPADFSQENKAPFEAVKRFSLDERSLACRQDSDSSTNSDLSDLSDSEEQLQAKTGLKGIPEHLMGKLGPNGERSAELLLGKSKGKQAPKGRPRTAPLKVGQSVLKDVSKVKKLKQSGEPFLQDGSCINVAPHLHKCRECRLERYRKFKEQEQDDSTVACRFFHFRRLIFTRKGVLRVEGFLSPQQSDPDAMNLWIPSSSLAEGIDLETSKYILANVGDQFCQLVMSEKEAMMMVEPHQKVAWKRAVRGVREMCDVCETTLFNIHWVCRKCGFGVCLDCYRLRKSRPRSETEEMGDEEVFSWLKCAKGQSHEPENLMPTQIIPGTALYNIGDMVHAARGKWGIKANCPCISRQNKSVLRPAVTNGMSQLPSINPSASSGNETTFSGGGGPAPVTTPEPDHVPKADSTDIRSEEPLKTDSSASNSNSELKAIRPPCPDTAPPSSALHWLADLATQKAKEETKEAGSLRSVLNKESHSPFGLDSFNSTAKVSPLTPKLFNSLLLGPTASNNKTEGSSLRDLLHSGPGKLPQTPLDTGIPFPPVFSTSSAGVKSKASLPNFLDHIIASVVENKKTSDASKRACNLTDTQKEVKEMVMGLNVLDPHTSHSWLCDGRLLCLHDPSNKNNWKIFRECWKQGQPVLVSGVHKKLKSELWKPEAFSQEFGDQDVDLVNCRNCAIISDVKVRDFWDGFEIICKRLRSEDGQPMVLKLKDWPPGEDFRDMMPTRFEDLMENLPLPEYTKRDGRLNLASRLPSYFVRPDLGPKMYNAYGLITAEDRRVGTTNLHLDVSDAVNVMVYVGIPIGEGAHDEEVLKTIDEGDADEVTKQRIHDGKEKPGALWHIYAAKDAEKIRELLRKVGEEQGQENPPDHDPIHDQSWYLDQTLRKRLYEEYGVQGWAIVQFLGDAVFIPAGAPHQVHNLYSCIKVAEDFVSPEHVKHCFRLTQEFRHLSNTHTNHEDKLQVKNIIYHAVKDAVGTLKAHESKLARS
Experimental: as §1, §2

SET7/9 = target: T1, SET7/9 (Homo sapiens, UniProt Q8WTS6); test: Histone methyltransferase enzymatic assay, SET7/9; type: biochemical; details: enzyme conc. 100 nM
T1 construct: 2-366; purchased RBC (read as Reaction Biology Corporation, named)
T1 sequence (Q8WTS6 2-366): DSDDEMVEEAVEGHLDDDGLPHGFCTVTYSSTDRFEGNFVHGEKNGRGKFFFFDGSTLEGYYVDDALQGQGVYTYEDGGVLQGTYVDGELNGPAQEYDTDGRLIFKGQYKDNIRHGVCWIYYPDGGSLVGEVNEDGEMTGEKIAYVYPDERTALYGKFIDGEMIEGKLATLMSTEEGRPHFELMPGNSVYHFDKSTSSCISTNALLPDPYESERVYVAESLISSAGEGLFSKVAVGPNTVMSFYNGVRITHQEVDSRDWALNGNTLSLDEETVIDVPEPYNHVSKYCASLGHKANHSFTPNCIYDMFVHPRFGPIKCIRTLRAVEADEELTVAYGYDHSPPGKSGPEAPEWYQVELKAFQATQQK
Experimental: (§3) Histone methyltransferase assays were performed in 96-well half-area optiplates (PerkinElmer) at room temperature. All concentrations are final unless noted otherwise. Compounds were serially diluted in DMSO and the final DMSO concentration was 1%. A 24 μL reaction mixture contained compound, enzyme, 200 nM of nucleosome or histone substrate, 400 nM ^3H-SAM (83.1 Ci/mmol), 50 mM Tris-HCl (pH 8.0), 50 mM NaCl, 5 mM MgCl2, 1 mM DTT, and 0.01% Tween-20. The plate was sealed, mixed on a Titramax plate shaker at 1200 rpm for 30 sec, and incubated at room temperature for 60 min. The reaction was quenched by addition of 24 μL mixture containing 5 mg/mL PVT-PEI beads and 300 μM unlabeled SAM in water. The plate was sealed, mixed as previously noted, incubated overnight, and read on a TopCount plate reader (PerkinElmer).
as §2

GLP = target: T2, GLP (Homo sapiens, UniProt Q9H9B1); test: Histone methyltransferase enzymatic assay, GLP; type: biochemical; details: enzyme conc. 100 nM; read-out: IC50
T2 construct: 894-1298; purchased RBC (read as Reaction Biology Corporation, named)
T2 sequence (Q9H9B1 894-1298): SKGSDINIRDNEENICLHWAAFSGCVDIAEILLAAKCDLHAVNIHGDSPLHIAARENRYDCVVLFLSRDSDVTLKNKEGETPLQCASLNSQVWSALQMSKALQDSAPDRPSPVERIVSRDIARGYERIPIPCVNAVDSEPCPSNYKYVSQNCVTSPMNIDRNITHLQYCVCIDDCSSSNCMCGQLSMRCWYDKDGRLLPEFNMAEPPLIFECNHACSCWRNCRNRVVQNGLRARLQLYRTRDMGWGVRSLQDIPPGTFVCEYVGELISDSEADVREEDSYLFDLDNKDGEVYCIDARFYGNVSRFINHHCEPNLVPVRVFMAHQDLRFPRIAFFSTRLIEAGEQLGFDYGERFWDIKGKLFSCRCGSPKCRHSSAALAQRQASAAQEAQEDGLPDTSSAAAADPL
Experimental: as §3, §2

KDM enzymes = test: KDM enzyme panel, selectivity across KDM families; type: biochemical, human
Experimental: The following assay protocol was used for all histone demethylases tested except KDM1A, KDM5A, B, and D, which are described below. Compounds were serially diluted into a 384-well Alpha plate as a DMSO solution and mixed with 5 μL reaction buffer (buffer A) containing 50 mM HEPES (pH 7.0), 0.1% BSA, and 0.003% Tween-20. The enzyme of interest was pre-incubated with 15 μM of Fe^2+ for 10 min (except 30 min for KDM2B) in reaction buffer A. 5 μL of the enzyme mixture was added to each of the compound-containing wells and incubated for 10 min. […] The assay plates were read on an Enspire plate reader (PerkinElmer) using a standard AlphaLISA program.
KDM5A and 5B were tested using CisBio HTRF assay platform by Reaction Biology Corp (Malvern, PA). […] The fluorescence resonance energy transfer was measured using an excitation wavelength of 320 nm and emission wavelength of 665 nm on an Envision plate reader (Perkin Elmer). […]
The KDM1 assay was conducted in the presence of […] but without Fe(II) or ascorbic acid. […] The assay plates were read on an Enspire plate reader (PerkinElmer) using a standard AlphaLISA program.
as §2

[1] = type: in vivo, human
Excerpt: Nevertheless, any further clinical evaluation of KMD5 inhibitors in other therapeutic areas should pay close attention to hepatotoxic effects, which might me associated with inhibition of the biologic target even at low levels of engagement.
For the clinical studies mentioned above, all patients signed an informed consent form before screening and in accordance with local regulatory and ethics committee requirements.

Sequence of KDM5C (P41229 whole entry): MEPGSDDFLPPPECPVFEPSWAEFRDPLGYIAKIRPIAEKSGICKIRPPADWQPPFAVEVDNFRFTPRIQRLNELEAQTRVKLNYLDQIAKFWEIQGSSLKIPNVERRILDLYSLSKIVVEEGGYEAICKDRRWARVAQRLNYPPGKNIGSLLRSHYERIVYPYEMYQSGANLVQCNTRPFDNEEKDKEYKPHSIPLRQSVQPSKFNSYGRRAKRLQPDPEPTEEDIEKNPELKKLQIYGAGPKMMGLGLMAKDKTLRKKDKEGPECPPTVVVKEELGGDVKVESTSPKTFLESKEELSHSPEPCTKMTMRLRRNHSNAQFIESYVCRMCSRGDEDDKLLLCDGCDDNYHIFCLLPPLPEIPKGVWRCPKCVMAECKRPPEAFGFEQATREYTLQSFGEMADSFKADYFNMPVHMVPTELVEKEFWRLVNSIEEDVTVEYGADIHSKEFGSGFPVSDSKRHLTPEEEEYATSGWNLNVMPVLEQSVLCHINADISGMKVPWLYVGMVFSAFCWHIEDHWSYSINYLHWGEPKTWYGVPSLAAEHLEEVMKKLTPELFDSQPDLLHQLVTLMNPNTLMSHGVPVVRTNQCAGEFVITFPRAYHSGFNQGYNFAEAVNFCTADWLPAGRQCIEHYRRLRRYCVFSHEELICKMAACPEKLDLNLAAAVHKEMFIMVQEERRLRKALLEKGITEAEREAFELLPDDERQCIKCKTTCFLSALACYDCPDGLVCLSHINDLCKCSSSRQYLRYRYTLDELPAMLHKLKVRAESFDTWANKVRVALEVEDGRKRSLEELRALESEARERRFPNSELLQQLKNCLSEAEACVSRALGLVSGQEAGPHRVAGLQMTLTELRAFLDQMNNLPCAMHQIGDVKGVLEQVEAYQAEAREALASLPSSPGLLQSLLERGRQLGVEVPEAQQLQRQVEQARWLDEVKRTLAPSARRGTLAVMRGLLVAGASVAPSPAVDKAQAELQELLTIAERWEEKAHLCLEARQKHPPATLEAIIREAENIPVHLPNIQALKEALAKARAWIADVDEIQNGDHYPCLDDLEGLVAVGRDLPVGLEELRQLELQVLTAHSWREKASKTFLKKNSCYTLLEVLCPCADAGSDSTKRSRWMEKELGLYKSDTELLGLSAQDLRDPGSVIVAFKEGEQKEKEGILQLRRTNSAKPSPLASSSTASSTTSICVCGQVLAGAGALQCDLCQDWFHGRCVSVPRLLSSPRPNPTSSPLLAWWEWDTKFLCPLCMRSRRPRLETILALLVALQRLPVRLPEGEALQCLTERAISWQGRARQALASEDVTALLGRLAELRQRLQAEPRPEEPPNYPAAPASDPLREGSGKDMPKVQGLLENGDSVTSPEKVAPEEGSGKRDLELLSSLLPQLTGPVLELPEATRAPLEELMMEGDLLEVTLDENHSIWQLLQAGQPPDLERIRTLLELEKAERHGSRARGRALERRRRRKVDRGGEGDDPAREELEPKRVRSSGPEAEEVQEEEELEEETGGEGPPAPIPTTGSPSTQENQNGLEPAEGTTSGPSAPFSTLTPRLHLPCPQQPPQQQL

Fold Selectivity Compared to KDM5A (KDM5C; IC50 of KDM5C over KDM5A)	IC50 (KDM5C; enzyme concentration 1 nM)	Fold Selectivity Compared to KDM5A (KDM1A; IC50 of KDM1A over KDM5A)	IC50 (KDM1A; enzyme concentration 0.25 nM)	Fold Selectivity Compared to KDM5A (KDM3B; IC50 of KDM3B over KDM5A)	IC50 (KDM3B; enzyme concentration 0.1 nM)	IC50 (SET7/9)	IC50 (GLP)	fold selectivity for KDM5A and KDM5B over members of the KDM4 family (KDM enzymes; KDM4A –C)	fold selectivity over members of the other KDM enzyme families tested (KDM enzymes; printed as from > 1,100- to > 278,000-fold, relative to KDM5A)	Compound	HBV antigen level decreases ([1]; HBV patients, to be published elsewhere)	liver toxicity ([1]; human, in vivo)
10 fold	0.0037 µM	> 278,000 fold	> 100 µM	> 27,800 fold	> 10 µM	> 100 µM	> 100 µM	≥ 13 fold	> 1,100 fold	CCN(CCN(C)C)C(=O)CNCc1cc(C(=O)O)ccn1 [GS-080]	–	–
–	–	–	–	–	–	–	–	–	–	CCOC(=O)c1ccnc(CNCC(=O)N(CC)CCN(C)C)c1 [GS-5801]	absence of any HBV antigen level decreases	dose limiting, reversible liver toxicity
